The text below walks through data of patent US9802941B2, “Compounds and methods for inhibiting histone demethylases” (Gilead Sciences, Inc., priority 2014, dated 2017).

Common to all, as to type: biochemical
For one test, the target named is T1, KDM4C (JMJD2C) (Homo sapiens, UniProt Q9H3R0).
T1 construct: KDM4C; BRIC, Denmark; 1-349; E. coli; host or cells: E. coli
T1 sequence (Q9H3R0 1-349): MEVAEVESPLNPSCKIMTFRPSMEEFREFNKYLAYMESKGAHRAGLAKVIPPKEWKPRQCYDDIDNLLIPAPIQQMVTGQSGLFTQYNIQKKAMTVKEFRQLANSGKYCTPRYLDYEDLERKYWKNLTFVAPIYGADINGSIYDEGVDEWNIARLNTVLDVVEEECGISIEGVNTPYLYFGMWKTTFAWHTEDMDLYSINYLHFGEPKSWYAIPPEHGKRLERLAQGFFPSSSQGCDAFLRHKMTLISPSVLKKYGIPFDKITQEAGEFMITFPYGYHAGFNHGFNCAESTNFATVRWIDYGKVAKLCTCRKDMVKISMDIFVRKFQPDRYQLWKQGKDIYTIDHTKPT
The test can be described thus: Histone lysine demethylase AlphaLISA assay, KDM4C. How it is done:
(§1) The compounds of the application, or a pharmaceutically acceptable salt, or solvate, or prodrug thereof, are tested in an in vitro AlphaLISA assay. Enzymes are dissolved in enzyme buffer and incubated before they are added to DMSO solutions of compounds of the application, or a pharmaceutically acceptable salt, or solvate, or prodrug thereof, in enzyme buffer. The reaction mixture is then incubated for an additional period of time before substrate solution is added and then the resulting mixture again incubated. Acceptor beads and suspended Epigenetic Buffer from stock are added and the suspension is again incubated before a suspension of streptavidin donor beads in Epigenetic Buffer is added. After an additional period of incubation, the plates are read.
(§2) The ability of compounds of the application to inhibit the histone lysine demethylase activity in vitro of different enzymes was determined.
(§3) The reaction mixture was incubated for another 10 minutes before 5 μL of substrate solution was added and the resulting mixture was then incubated at room temperature. […] After incubation at room temperature in the dark, the plates were read.
(§4) Enzyme Buffer: 50 mM Hepes (pH 7.4-8.0), 0.003-0.01% Tween-20, 0.1% BSA; 5 μM (NH4)2Fe(SO4)2.

Another test deals with T2, PHF8 (KDM7) (Homo sapiens, UniProt Q9UPP1).
T2 construct: KDM7 (PHF8); BRIC; 1-1322; Bac
The test can be described thus: Histone lysine demethylase AlphaLISA assay, PHF8. On the procedure:
as §1, §2, §3, §4
On the technique in general: Bead proximity is the source of the signal in Alpha formats.

In another test the target is T3, KDM5B (PLU-1) (Homo sapiens, UniProt Q9UGL1).
T3 construct: BRIC; 1-809; E. coli; host or cells: E. coli
T3 sequence (Q9UGL1 1-809): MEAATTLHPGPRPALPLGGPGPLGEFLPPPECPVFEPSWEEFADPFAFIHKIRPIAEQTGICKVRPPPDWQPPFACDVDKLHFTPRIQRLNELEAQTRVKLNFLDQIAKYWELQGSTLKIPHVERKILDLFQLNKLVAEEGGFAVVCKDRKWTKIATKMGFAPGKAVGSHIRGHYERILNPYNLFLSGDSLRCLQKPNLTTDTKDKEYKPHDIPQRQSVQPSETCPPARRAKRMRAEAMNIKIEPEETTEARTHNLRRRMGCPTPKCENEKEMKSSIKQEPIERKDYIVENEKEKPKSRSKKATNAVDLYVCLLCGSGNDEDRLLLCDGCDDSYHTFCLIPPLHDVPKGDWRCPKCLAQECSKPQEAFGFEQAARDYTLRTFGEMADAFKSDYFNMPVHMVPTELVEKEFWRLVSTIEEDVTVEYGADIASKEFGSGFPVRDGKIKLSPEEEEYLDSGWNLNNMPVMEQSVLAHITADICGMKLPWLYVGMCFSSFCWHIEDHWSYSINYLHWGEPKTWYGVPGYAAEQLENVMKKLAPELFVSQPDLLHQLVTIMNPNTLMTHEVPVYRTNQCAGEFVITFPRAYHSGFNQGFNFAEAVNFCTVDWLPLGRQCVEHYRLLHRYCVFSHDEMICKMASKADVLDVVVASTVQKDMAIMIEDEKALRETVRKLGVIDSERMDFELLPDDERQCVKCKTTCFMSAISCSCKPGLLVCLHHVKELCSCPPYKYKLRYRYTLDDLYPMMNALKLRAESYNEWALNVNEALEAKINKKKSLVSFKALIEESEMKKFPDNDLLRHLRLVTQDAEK
Description: Histone lysine demethylase AlphaLISA assay, KDM5B. On the procedure:
as §1, §2, §3, §4

The next test deals with T4, KDM2B (FBXL10) (Homo sapiens, UniProt Q8NHM5).
T4 construct: KDM2B; BPS,; 1-650; Bac; purchased BPS Bioscience, US; host or cells: baculovirus system
T4 sequence (Q8NHM5 1-650): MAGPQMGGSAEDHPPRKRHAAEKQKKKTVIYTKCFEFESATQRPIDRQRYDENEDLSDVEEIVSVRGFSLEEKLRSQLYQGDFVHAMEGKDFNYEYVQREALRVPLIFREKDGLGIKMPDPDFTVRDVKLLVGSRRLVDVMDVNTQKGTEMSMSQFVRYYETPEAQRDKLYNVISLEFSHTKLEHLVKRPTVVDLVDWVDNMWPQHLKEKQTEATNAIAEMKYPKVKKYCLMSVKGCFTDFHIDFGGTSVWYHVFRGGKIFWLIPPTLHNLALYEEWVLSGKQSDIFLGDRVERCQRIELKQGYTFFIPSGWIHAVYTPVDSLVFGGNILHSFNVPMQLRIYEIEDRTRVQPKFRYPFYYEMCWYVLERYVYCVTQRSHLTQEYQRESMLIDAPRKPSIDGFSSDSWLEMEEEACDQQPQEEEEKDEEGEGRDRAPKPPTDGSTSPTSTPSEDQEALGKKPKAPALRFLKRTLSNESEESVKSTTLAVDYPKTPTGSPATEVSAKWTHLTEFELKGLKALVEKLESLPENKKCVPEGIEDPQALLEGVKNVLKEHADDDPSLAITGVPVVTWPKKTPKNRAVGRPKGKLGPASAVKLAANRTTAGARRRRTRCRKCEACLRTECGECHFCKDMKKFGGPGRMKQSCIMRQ
Description: Histone lysine demethylase AlphaLISA assay, KDM2B. On the procedure:
as §1, §2, §3, §4

Setting [1] is: AlphaLISA assay, read-out: HDME Inhibition KDM4C (IC50).
Setting [2] is: AlphaLISA, in vitro, read-out: HDME Inhibition KDM4C.
Where [3] appears, read: AlphaLISA, in vitro, read-out: HDME Inhibition PHF8.
The mark [4] stands for this setting: AlphaLISA, in vitro, read-out: HDME Inhibition KDM2B.
[5] abbreviates: AlphaLISA assay, read-out: HDME Inhibition KDM5B (IC50).
The mark [6] stands for this setting: AlphaLISA, in vitro, read-out: HDME Inhibition KDM5B.
Setting [7] is: AlphaLISA assay, read-out: HDME Inhibition PHF8 (IC50).
Where [8] appears, read: AlphaLISA assay, read-out: HDME Inhibition KDM2B (IC50).

Read-outs that look alike come from different tables or passages of the source. Where only a bound is given, the exact number is not on record here.

T2 sequence (Q9UPP1 37-440 limits assumed): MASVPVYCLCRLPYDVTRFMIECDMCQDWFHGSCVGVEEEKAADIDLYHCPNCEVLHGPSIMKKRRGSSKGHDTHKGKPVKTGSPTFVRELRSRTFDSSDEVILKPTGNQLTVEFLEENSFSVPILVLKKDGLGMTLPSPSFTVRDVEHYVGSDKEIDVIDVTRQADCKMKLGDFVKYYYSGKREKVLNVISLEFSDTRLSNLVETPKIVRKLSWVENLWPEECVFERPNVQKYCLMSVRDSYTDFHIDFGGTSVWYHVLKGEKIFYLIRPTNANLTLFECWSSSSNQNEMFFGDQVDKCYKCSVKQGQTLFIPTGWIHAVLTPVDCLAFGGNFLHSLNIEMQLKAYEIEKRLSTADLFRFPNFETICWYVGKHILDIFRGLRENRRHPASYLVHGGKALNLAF

`Cc1nnc(CNCc2cc(C(=O)O)cc(CO)n2)n1CCCc1ccccc1` [Compound 65, 2-(hydroxymethyl)-6-[({[5-methyl-4-(3-phenylpropyl)-4H-1,2,4-triazol-3-yl]methyl}amino)methyl]pyridine-4-carboxylic acid]: the IC50 is over 10 µM at KDM4C (JMJD2C) (setting [1]); over 10 µM on KDM4C (JMJD2C) (setting [2]); 1.01 µM at PHF8 (KDM7) (setting [3]); 0.151 µM against KDM5B (PLU-1); 0.034 µM at KDM2B (FBXL10) (setting [4]).
For `Cc1cc(C(=O)O)cc(CNCc2ncc(C(C)O)n2Cc2ccc(F)cc2)n1` (centres unmarked) [Compound 63, 2-{[({1-[(4-fluorophenyl)methyl]-5-(1-hydroxyethyl)-1H-imidazol-2-yl}methyl)amino]methyl}-6-methylpyridine-4-carboxylic acid], the IC50 on KDM4C (JMJD2C) (setting [1]) was over 10 µM; on KDM4C (JMJD2C) (setting [2]), over 10 µM; at PHF8 (KDM7) (setting [3]), 1.4 µM; on KDM5B (PLU-1) (setting [5]), over 10 µM; on KDM5B (PLU-1) (setting [6]) it was over 10 µM; at KDM2B (FBXL10) (setting [4]), 0.333 µM.
On to `C/C=C/c1cnc(CNCc2cc(C(=O)O)cc(C)n2)n1Cc1ccc(F)cc1` [Compound 42, 2-{[({1-[(4-fluorophenyl)methyl]-5-[(1E)-prop-1-en-1-yl]-1H-imidazol-2-yl}methyl)amino]methyl}-6-methylpyridine-4-carboxylic acid], for which the IC50 at KDM4C (JMJD2C) (setting [1]) was over 10 µM; on KDM4C (JMJD2C) (setting [2]) it was over 10 µM; at PHF8 (KDM7) (setting [3]), 0.859 µM; at KDM5B (PLU-1) (setting [5]) it was over 10 µM; at KDM5B (PLU-1) (setting [6]), over 10 µM; on KDM2B (FBXL10) (setting [4]) it was 0.659 µM.
For the compound `CCc1cnc(CNCc2cc(C(=O)O)cc(C)n2)n1CCCc1ccccc1` [Compound 108, 2-[({[5-ethyl-1-(3-phenylpropyl)-1H-imidazol-2-yl]methyl}amino)methyl]-6-methylpyridine-4-carboxylic acid], the IC50 on KDM4C (JMJD2C) (setting [1]) is over 10 µM; at KDM4C (JMJD2C) (setting [2]), over 10 µM; at PHF8 (KDM7) (setting [3]) it was 0.861 µM; on KDM5B (PLU-1) (setting [5]) it was over 10 µM; on KDM5B (PLU-1) (setting [6]), over 10 µM; at KDM2B (FBXL10) (setting [4]), 0.133 µM.
Regarding `COc1ccc(OCCc2ccccc2)c(CCNCc2cc(C(=O)O)cc(CO)n2)n1` [Compound 107, 2-(hydroxymethyl)-6-[({2-[6-methoxy-3-(2-phenylethoxy)pyridin-2-yl]ethyl}amino)methyl]pyridine-4-carboxylic acid], the IC50 on KDM4C (JMJD2C) (setting [1]), on KDM4C (JMJD2C) (setting [2]), at PHF8 (KDM7) (setting [7]), on PHF8 (KDM7) (setting [3]), on KDM5B (PLU-1) (setting [5]) and on KDM5B (PLU-1) (setting [6]) was over 10 µM throughout. Besides, on KDM2B (FBXL10) (setting [4]), the IC50 was found to be 5.18 µM.
As to `CCc1nnc(CNCc2cc(C(=O)O)cc(C)n2)n1Cc1cccc(C(C)O)c1` (centres unmarked) [Compound 86, 2-({[(5-ethyl-4-{[3-(1-hydroxyethyl)phenyl]methyl}-4H-1,2,4-triazol-3-yl)methyl]amino}methyl)-6-methylpyridine-4-carboxylic acid], the IC50 at KDM4C (JMJD2C) (setting [1]), at KDM4C (JMJD2C) (setting [2]), on PHF8 (KDM7) (setting [7]), at PHF8 (KDM7) (setting [3]), on KDM5B (PLU-1) (setting [5]) and on KDM5B (PLU-1) (setting [6]) was over 10 µM throughout. The IC50 at KDM2B (FBXL10) (setting [8]) and on KDM2B (FBXL10) (setting [4]) was over 10 µM in each case.
As to `COc1ccc(O)c(CCNCc2cc(C(=O)O)cc(CO)n2)n1` [Compound 109, 2-({[2-(3-hydroxy-6-methoxypyridin-2-yl)ethyl]amino}methyl)-6-(hydroxymethyl)pyridine-4-carboxylic acid], the IC50 at KDM4C (JMJD2C) (setting [1]), on KDM4C (JMJD2C) (setting [2]), on PHF8 (KDM7) (setting [7]), at PHF8 (KDM7) (setting [3]), on KDM5B (PLU-1) (setting [5]) and at KDM5B (PLU-1) (setting [6]) was over 10 µM each time. The IC50 at KDM2B (FBXL10) (setting [8]) and on KDM2B (FBXL10) (setting [4]) was over 10 µM each time.
As to `O=C(O)c1cc(CO)nc(CNCc2nncn2CCc2cc(Cl)cc(Cl)c2)c1` [Compound 55, 2-{[({4-[2-(3,5-dichlorophenyl)ethyl]-4H-1,2,4-triazol-3-yl}methyl)amino]methyl}-6-(hydroxymethyl)pyridine-4-carboxylic acid], the IC50 at KDM4C (JMJD2C) (setting [1]) is over 10 µM; at KDM4C (JMJD2C) (setting [2]) it was over 10 µM; on PHF8 (KDM7) (setting [3]), 1.3 µM; on KDM5B (PLU-1), 1.78 µM; at KDM2B (FBXL10) (setting [4]), 0.656 µM.
Consider `Cc1cc(C(=O)O)cc(CNCc2nnc(C)n2Cc2ccc(Cl)c(Cl)c2)n1` [Compound 57, 2-{[({4-[(3,4-dichlorophenyl)methyl]-5-methyl-4H-1,2,4-triazol-3-yl}methyl)amino]methyl}-6-methylpyridine-4-carboxylic acid], for which the IC50 is over 10 µM on KDM4C (JMJD2C) (setting [1]); over 10 µM on KDM4C (JMJD2C) (setting [2]); 1.27 µM at PHF8 (KDM7) (setting [3]); over 10 µM at KDM5B (PLU-1) (setting [5]); over 10 µM at KDM5B (PLU-1) (setting [6]); 1.14 µM at KDM2B (FBXL10) (setting [4]).
For `CSc1cnc(CNCc2cc(C(=O)O)cc(C)n2)n1Cc1ccc(F)cc1` [Compound 43, 2-{[({1-[(4-fluorophenyl)methyl]-5-(methylsulfanyl)-1H-imidazol-2-yl}methyl)amino]methyl}-6-methyl pyridine-4-carboxylic acid], the IC50 was over 10 µM at KDM4C (JMJD2C) (setting [1]); over 10 µM at KDM4C (JMJD2C) (setting [2]); 0.869 µM at PHF8 (KDM7) (setting [3]); over 10 µM at KDM5B (PLU-1) (setting [5]); over 10 µM at KDM5B (PLU-1) (setting [6]); 0.442 µM at KDM2B (FBXL10) (setting [4]).
For the compound `CCN(CCN(C)C)C(=O)CNCc1cc(C(=O)O)cc(C)n1` [Compound 98, 2-{[({[2-(dimethylamino)ethyl](ethyl)carbamoyl}methyl)amino]methyl}-6-methylpyridine-4-carboxylic acid], the IC50 on KDM4C (JMJD2C) (setting [2]) was 1.67 µM; at PHF8 (KDM7) (setting [7]), over 10 µM; at PHF8 (KDM7) (setting [3]), over 10 µM; at KDM5B (PLU-1) (setting [6]), 0.008 µM; on KDM2B (FBXL10) (setting [4]), 0.53 µM.
